Values joined by “and” are separate entries in the source; they are usually repeats but may differ in a detail not shown here. Identical values can stand only once.
Key:
DCN1 = DCN1 (Homo sapiens, UniProt Q96GG9); assay: Intact-protein mass spectrometric analysis of covalent complex formation, Method A; format: binding; details: for Percentage of the formation of covalent complex with DCN1 protein: 37 °C
Description: MassHunter Qualitative Analysis software (Agilent) was used to analyze the data. Intact protein masses were obtained using the maximum entropy deconvolution algorithm. The mass spectrometry data in Supplementary Figs. 1–11 were generated by Method A.

neddylation of cullin 3 [1] = assay: Western blot, cullin 3 neddylation in cells of different tissue types (U2OS, THLE2, MDA-MB-231, KYSE70, HCT116); format: cell-based, human
Procedure: (§1) Western blotting was performed as described previously. Treated cells were lysed by RIPA buffer supplemented with protease inhibitor. The expression level of indicated proteins was examined by immunoblotting analysis and GAPDH was used as the loading control. Antibodies were purchased commercially: cullin 1 (sc-17775, 1:500 dilution) and cullin 2 (sc-166506, 1:500 dilution) from Santa Cruz Biotech (Santa Cruz, CA); cullin 4A (PA5-14542, 1:1000 dilution), cullin 4B (PA5-50647, 1:1000 dilution), and DCN3 (DCUN1D3, PA5-44000, 1:1000 dilution) from Thermo Fisher Scientific (Wayne, MI); cullin 3 (2759, 1:1000), NRF2 (12721, 1:1000 dilution), HO-1 (70081, 1:1000 dilution), and Bim (2819, 1:1000 dilution) from Cell Signaling Technology (Boston, MA); DCN1 (GWB-E3D700, 1:1000 dilution) from GenWay Biotech (San Diego, CA); and cullin 5 (A302-173A, 1:500 dilution) from Bethyl Labs (Montgomery, TX). Results are representative of two independent experiments.

neddylation of cullin 3 [2] = assay: Western blot, cullin 3 neddylation in U2OS cells; format: cell-based, human; details: 24 h, Fig. 1c
Procedure: as §1

[3] = Cell viability assay (WST-8), HCT116; format: cell-based, human; details: human, HCT116 cells, replicates, read-out: cell viability relative to control
Procedure: (§2) Cell viability assay was performed as previously described. The effect of DCN1 inhibitors on cell growth was evaluated by a WST-8 [2-(2-methoxy-4-nitrophenyl)-3-(4-nitrophenyl)-5-(2,4-disulfophenyl)-2H-tetrazolium, monosodium salt assay (Dojindo Molecular Technologies, Inc). Cells (2000–3000 cells in each well) were seeded in 96-well tissue culture plates in medium (100 μL) and treated with serial dilution of DCN1 inhibitors for 3 days. At the end of incubation, WST-8 dye (20 μL) was added to each well and incubated for 1–3 h, then the absorbance was measured in a microplate reader (Molecular Devices) at 450 nm. Cell growth inhibition was evaluated as the ratio of the absorbance of the sample to that of the control. The values were inserted into Prism software, and the curves and the EC50 values were produced by Prism software.

HCT116 cells = assay: Cell viability assay (WST-8), HCT116; format: cell-based, human; details: for cell viability relative to control: replicates
Procedure: as §2

U2OS cells = assay: Cell viability assay (WST-8), U2OS; format: cell-based, human; details: for cell viability relative to control: replicates
Procedure: as §2

[4] = Cell viability assay (WST-8), MDA-MB-231; format: cell-based, human; details: human, MDA-MB-231 cells, replicates, read-out: cell viability relative to control
Procedure: as §2

MDA-MB-231 cells = assay: Cell viability assay (WST-8), MDA-MB-231; format: cell-based, human; details: for cell viability relative to control: replicates
Procedure: as §2

[5] = tested on: APAP-induced liver injury; assay: APAP-induced liver injury: ROS assay in liver tissue; format: in vivo, mouse; details: G2: APAP 400 mg/kg, a single dose
Procedure: (§3) The in vivo studies were performed under animal protocols (PRO00007499) and (PRO00006638) approved by the Institutional Animal Care & Use Committee of the University of Michigan, in accordance with the recommendations in the Guide for the Care and Use of Laboratory Animals of the National Institutes of Health. C57BL/6 WT mice (~8 weeks, male, normal chow) were purchased from the Jackson Laboratory and randomly divided into eight groups (8–9 mice per group) treated (IP) as follows: phosphate-buffered saline vehicle once per day for 3 days (G1), APAP alone a single dose at 400 mg/kg on day 1 (G2), DI-1859 alone 25 mg/kg once per day for 3 days (G3), DI-1859 alone 50 mg/kg once per day for 3 days (G4), pretreatment (1 day before the APAP administration) with DI-1859 at 25 mg/kg once per day for 3 days followed with APAP at 400 mg/kg on day (G5), pretreatment (1 day before the APAP administration) with DI-1859 at 50 mg/kg once per day for 3 days followed with APAP at 400 mg/kg on day (G6), APAP a single dose at 400 mg/kg (3 h before the first DI-1859 administration) followed with DI-1859 at 25 mg/Kg once per day for 3 days (G7), and APAP a single dose at 400 mg/kg (3 h before the first DI-1859 administration) followed with DI-1859 at 50 mg/Kg once per day for 3 days (G8).
(§4) To induce acute liver injury, animals received PBS or APAP (400 mg/kg, sigma, A7085) through I.P. injection at 12 p.m. and were sacrificed 48 h afterward. To examine the protective effect of DI-1859 (groups 5 and 6), animals were I.P. injected with compound for 3 consecutive days (9 a.m. on each day, starting 1 day before APAP administration). To examine the restorative effect of DI-1859 (groups 7 and 8), animals were I.P. injected with compound 3 h after APAP administration followed by two additional treatments (9 a.m. on the next 2 days). Body weight and blood glucose level measurement, along with blood sample collection, were performed at 12 p.m. on each day.
Liver samples were homogenized in a lysis buffer and mixed with a dichlorofluorescein diacetate fluorescent probe (DCF, Sigma, D6883) to a final probe concentration of 5 µM for 1 h at 37 °C. DCF fluorescence was measured using a BioTek Synergy 2 Multi-Mode Microplate Reader (485 nm excitation and 527 nm emission).

[6] = tested on: APAP-induced liver injury; assay: APAP-induced liver injury: alanine aminotransferase (ALT) level; format: in vivo, mouse; details: single dose 400 mg/kg, IP
Procedure: as §3, §4
Blood glucose levels were determined using glucometers (Bayer Corp., Pittsburgh, PA). Plasma ALT activity was measured using an ALT reagent set (Pointe Scientific Inc., Canton, MI).

NRF2 protein = assay: Western blot, NRF2 protein accumulation in cells; format: cell-based, human; details: 100 nM
Procedure: as §1

[7] = 10 min incubation, 1.2-fold excess inhibitor

Chain of DCN1 (Q96GG9 58-259 limits assumed): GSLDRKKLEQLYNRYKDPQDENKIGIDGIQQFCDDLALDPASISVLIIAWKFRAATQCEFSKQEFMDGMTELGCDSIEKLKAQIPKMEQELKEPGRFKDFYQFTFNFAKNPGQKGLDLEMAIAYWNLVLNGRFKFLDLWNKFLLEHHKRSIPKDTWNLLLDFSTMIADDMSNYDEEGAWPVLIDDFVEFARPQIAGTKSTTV

## C=C(Cn1ccnc1)C(=O)NC[C@@H](NC(=O)[C@H](Cc1nc2ccc(C(C)C)cc2s1)NC(=O)CC)C1CCCCC1 [compound 10]
DCN1
  covalent complex formation / reaction kinetics with DCN1 protein (in words): slower reaction kinetics with DCN1 than DI-1548 and DI-1859
DCN1; [7]
  Percentage of the formation of covalent complex with DCN1 protein: 80%
DCN1; 60 min (1 h) incubation
  Percentage of the formation of covalent complex with DCN1 protein: 100%
DCN1; 180 min (3 h) incubation
  Percentage of the formation of covalent complex with DCN1 protein: 100%
DCN1; 720 min (12 h) incubation
  Percentage of the formation of covalent complex with DCN1 protein: 100%
Neddylation of cullin 3 [1]; in cell, Supplementary Fig. 12
  potency in inhibition of cullin 3 neddylation compared with DI-1548: ten times less potent than DI-1548

## C=C(CCN1CCOCC1)C(=O)NC[C@@H](NC(=O)[C@H](Cc1nc2ccc(C(C)C)cc2s1)NC(=O)CC)C1CCCCC1 [compound 8]
DCN1
  covalent complex formation / reaction kinetics with DCN1 protein (in words): much slower reaction kinetics than 6 and 7
DCN1; 60 min (1 h) incubation
  Percentage of the formation of covalent complex with DCN1 protein: 15%
DCN1; 720 min (12 h) incubation
  Percentage of the formation of covalent complex with DCN1 protein: 100%
Neddylation of cullin 3 [2]
  potency in inhibition of cullin 3 neddylation compared with DI-591: much more potent than DI-591

## CCC(=O)N[C@@H](Cc1nc2ccc(C(C)C)cc2s1)C(=O)N[C@H](CNC(=O)/C=C/CN(C)C)C1CCCCC1 [compound 5]
DCN1
  covalent complex formation / reaction kinetics with DCN1 protein (in words): reaction kinetics similar to that of 3
DCN1; [7]
  Percentage of the formation of covalent complex with DCN1 protein: 0%
DCN1; 60 min (1 h) incubation
  Percentage of the formation of covalent complex with DCN1 protein: 0%
DCN1; 180 min (3 h) incubation
  Percentage of the formation of covalent complex with DCN1 protein: 2%
DCN1; 720 min (12 h) incubation
  Percentage of the formation of covalent complex with DCN1 protein: 30%

## CCC(=O)N[C@@H](Cc1nc2ccc(C(C)C)cc2s1)C(=O)N[C@H](CNC(=O)CCN1CCOCC1)C1CCCCC1 [DI-591]
[3]; conc 3, 72 h
  viability at 72 h: 106%
[3]; conc 10, 72 h
  viability at 72 h: 94.3%
[3]; conc 30, 72 h
  viability at 72 h: 90%
[3]; conc 1000, 72 h
  viability at 72 h: 94.3%
HCT116 cells; Homo sapiens, HCT-116, 72 h, read-out: EC50, cell growth inhibition
  EC50: > 1 µM
HCT116 cells; conc 3, 72 h
  cell viability relative to control: 106.068 and 106.647
HCT116 cells; conc 10, 72 h
  cell viability relative to control: 94.7863 and 106.766
HCT116 cells; conc 30, 72 h
  cell viability relative to control: 103.675 and 96.2874
HCT116 cells; conc 100, 72 h
  cell viability relative to control: 92.6577 and 103.333 and 79.1617
HCT116 cells; conc 300, 72 h
  cell viability relative to control: 90.9009 and 107.521 and 85.6886
HCT116 cells; conc 1000, 72 h
  cell viability relative to control: 100.085 and 92.0359
U2OS cells; Homo sapiens, U2OS, 72 h, read-out: EC50, cell growth inhibition
  EC50: > 1 µM
U2OS cells; conc 10, 72 h
  cell viability relative to control: 113.521 and 92.8169 and 93.8028
U2OS cells; conc 30, 72 h
  cell viability relative to control: 110.282 and 96.9014 and 89.8591
U2OS cells; conc 100, 72 h
  cell viability relative to control: 112.958 and 95.2113 and 89.4366
U2OS cells; conc 300, 72 h
  cell viability relative to control: 115.211 and 91.5493 and 99.0141
U2OS cells; conc 1000, 72 h
  cell viability relative to control: 84.9296 and 111.127 and 85.7746
[4]; conc 10, 72 h
  viability at 72 h: 94.3%
[4]; conc 30, 72 h
  viability at 72 h: 113%
[4]; conc 100, 72 h
  viability at 72 h: 109%
[4]; conc 300, 72 h
  viability at 72 h: 105%
[4]; conc 1000, 72 h
  viability at 72 h: 94.9%
MDA-MB-231 cells; Homo sapiens, MDA-MB-231, 72 h, read-out: EC50, cell growth inhibition
  EC50: > 1 µM
MDA-MB-231 cells; conc 10, 72 h
  cell viability relative to control: 101.954 and 101.609
MDA-MB-231 cells; conc 30, 72 h
  cell viability relative to control: 108.276 and 97.3563
MDA-MB-231 cells; conc 100, 72 h
  cell viability relative to control: 100.345 and 97.5862
MDA-MB-231 cells; conc 300, 72 h
  cell viability relative to control: 105.517 and 106.667
MDA-MB-231 cells; conc 1000, 72 h
  cell viability relative to control: 102.644

## CC(=O)Nc1ccc(O)cc1 [APAP, acetaminophen]
[5]
  ROS level in mouse liver tissue, mean: 12.4435 A.U./ug
  ROS level normalised to the mean of G1 (vehicle), mean: 1.645
[6]
  hepatotoxicity in mice: induced severe hepatotoxicity

## C=C(CN(C)C)C(=O)NC[C@H](NC(=O)[C@@H](Cc1nc2ccc(C(C)C)cc2s1)NC(=O)CC)C1CCCCC1 [DI-1859DD]
Neddylation of cullin 3 [1]
  times less potent than DI-1548 and DI-1859, respectively, on cullin 3 neddylation: > 300 times
Neddylation of cullin 3 [1]; 100–300 nM
  effect on the neddylation of cullin 3: no significant effect
NRF2 protein
  accumulation of NRF2 protein: no obvious accumulation

## C=C(CCN(C)C)C(=O)NC[C@@H](NC(=O)[C@H](Cc1nc2ccc(C(C)C)cc2s1)NC(=O)CC)C1CCCCC1 [compound 9]
DCN1
  covalent complex formation / reaction kinetics with DCN1 protein (in words): much slower reaction kinetics than 6 and 7
DCN1; 60 min (1 h) incubation
  Percentage of the formation of covalent complex with DCN1 protein: 30%
DCN1; 180 min (3 h) incubation
  Percentage of the formation of covalent complex with DCN1 protein: 50%
DCN1; 720 min (12 h) incubation
  Percentage of the formation of covalent complex with DCN1 protein: 100%
Neddylation of cullin 3 [2]
  potency in inhibition of cullin 3 neddylation compared with DI-591: much more potent than DI-591
